According to patent US7855214B2, “Fused cyclic systems useful as inhibitors of TEC family protein kinases” (Vertex Pharmaceuticals Incorporated, priority 2004, dated 2010):

Target: T1, Itk (Homo sapiens, UniProt Q08881)
T1 sequence (Q08881 1-620): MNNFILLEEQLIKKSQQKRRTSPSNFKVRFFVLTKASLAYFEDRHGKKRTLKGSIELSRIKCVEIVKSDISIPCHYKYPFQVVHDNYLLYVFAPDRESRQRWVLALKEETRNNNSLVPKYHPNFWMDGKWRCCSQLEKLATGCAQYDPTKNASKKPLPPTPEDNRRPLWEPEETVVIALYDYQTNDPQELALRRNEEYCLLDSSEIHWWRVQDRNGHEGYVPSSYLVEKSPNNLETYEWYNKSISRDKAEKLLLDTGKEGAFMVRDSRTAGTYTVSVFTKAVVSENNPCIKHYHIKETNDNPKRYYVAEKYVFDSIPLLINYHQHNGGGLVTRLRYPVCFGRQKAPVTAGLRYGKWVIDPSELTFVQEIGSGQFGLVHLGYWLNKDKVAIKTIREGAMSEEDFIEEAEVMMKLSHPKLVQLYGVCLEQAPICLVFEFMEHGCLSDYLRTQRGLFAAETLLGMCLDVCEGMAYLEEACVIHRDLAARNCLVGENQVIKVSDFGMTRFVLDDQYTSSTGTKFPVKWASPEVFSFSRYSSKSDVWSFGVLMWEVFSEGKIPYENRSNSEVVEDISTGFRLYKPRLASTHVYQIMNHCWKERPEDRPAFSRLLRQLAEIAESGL
Experiment: ITK Inhibition Assay (AlphaScreen)
Assay type: biochemical
Details: Ki(app); 100 μM ATP, 2 μM biotinylated SAM68 peptide, 30 nM Itk, 25° C.
Protocol: Compounds were screened for their ability to inhibit Itk using an AlphaScreen™ phosphotyrosine assay at Vertex Pharmaceuticals. Assays were carried out in a mixture of 20 mM MOPS (pH 7.0), 10 mM MgCl2, 0.1% BSA and 1 mM DTT. Final substrate concentrations in the assay were 100 μM ATP (Sigma Chemicals) and 2 μM peptide (Biotinylated SAM68 Δ332-443). Assays were carried out at 25° C. and in the presence of Itk (30 nM). An assay stock buffer solution was prepared containing all of the reagents listed above, with the exception of ATP and the test compound of interest. 25 μL of the stock solution was placed in each well of a 96 well plate followed by 1 μL of DMSO containing serial dilutions of the test compound (typically starting from a final concentration of 15 μM) in duplicate (final DMSO concentration 2%). The plate was preincubated for 10 minutes at 25° C. and the reaction initiated by addition of 25 μL ATP (final concentration 100 μM). Background counts were determined by the addition of 5 μL 500 mM EDTA to control wells containing assay stock buffer and DMSO prior to initiation with ATP.
The reaction was stopped after 30 minutes by diluting the reaction 225-fold into MOPS buffer (20 mM MOPS (pH 7.0), 1 mM DTT, 10 mM MgCl2, 0.1% BSA) containing 50 mM EDTA to bring the final concentration of Biotin-SAM68 to 9 nM.
AlphaScreen™ reagents were prepared according to the manufacturers instructions (AlphaScreen™ phosphotyrosine (P-Tyr-100) assay kit, PerkinElmer catalogue number 6760620C). Under subdued lighting, 20 μL of AlphaScreen™ reagents were placed in each well of a white half area 96 well plate (Corning Inc.—COSTAR 3693) with 30 μL of the stopped, diluted kinase reactions. Plates were incubated in the dark for 60 minutes prior to reading on a Fusion Alpha plate reader (PerkinElmer).
After removing mean background values for all of the data points, Ki(app) data were calculated from non-linear regression analysis using the Prism software package (GraphPad Prism version 3.0cx for Macintosh, GraphPad Software, San Diego Calif., USA).

Compound | Ki
COc1cc2nc3nc(Nc4cc(C5CC5)n[nH]4)c4ccccc4n3c(=O)c2cc1OC [Compound I-10] | < 1000 nM
Nc1ccc2c(=O)n3c(nc(Nc4cc(C5CC5)[nH]n4)c4ccccc43)nc2c1 [Compound I-1] | < 1000 nM
CCOC(=O)Nc1ccc2c(=O)n3c(nc(Nc4cc(C5CC5)n[nH]4)c4ccccc43)nc2c1 [Compound I-16] | < 1000 nM
COc1cc2nc3nc(Nc4cc(C(C)C)n[nH]4)c4ccccc4n3c(=O)c2cc1OC [Compound I-14] | < 1000 nM
Cc1cc(Nc2nc3nc4cc(N)ccc4c(=O)n3c3ccccc23)[nH]n1 [Compound I-3] | < 1000 nM
O=c1c2ccccc2nc2nc(Nc3cc(C4CC4)n[nH]3)c3c(n12)CCCC3 [Compound I-17] | < 1000 nM
CCCc1cc(Nc2nc3nc4ccccc4c(=O)n3c3ccccc23)n[nH]1 [Compound I-13] | < 1000 nM
O=c1c2ccccc2nc2nc(Nc3cc(C4CCCC4)n[nH]3)c3ccccc3n12 [Compound I-9] | < 1000 nM
O=c1c2ccccc2nc2nc(Nc3cc(C4CC4)n[nH]3)c3c(n12)CCC3 [Compound I-15] | < 1000 nM
O=c1c2ccccc2nc2nc(Nc3cc(C4CC4)n[nH]3)c3ccccc3n12 [Compound I-2] | < 1000 nM
COCCCc1cc(Nc2nc3nc4ccccc4c(=O)n3c3ccccc23)n[nH]1 [Compound I-21] | < 1000 nM
CC(C)c1cc(Nc2nc3nc4ccccc4c(=O)n3c3ccccc23)[nH]n1 [Compound I-7] | < 1000 nM
O=c1c2ccccc2nc2nc(Nc3cc(CCCO)[nH]n3)c3ccccc3n12 [Compound I-20] | < 1000 nM
COc1cc2nc3nc(Nc4cc(C5CCCC5)n[nH]4)c4ccccc4n3c(=O)c2cc1OC [Compound I-11] | < 1000 nM
